Tests used:
Male Sprague Dawley rats = assay: Oral glucose tolerance test (oGTT) in rats; assay type: in vivo; settings: rat, p.o.; for Mean % inhibition of glucose excursion: dextrose 2 g/kg, mean of six animals; for Effect on blood glucose after challenge with glucose: result in words
Description: In Vivo Effects of RUP3 Agonists on Glucose Homeostasis in Rats
A. Oral Glucose Tolerance Test (oGTT)
Male Sprague Dawley rats weighing approximately 200 g-250 g were fasted for 15 hours and randomly grouped (n=6) to receive a RUP3 agonist (Compounds A194, A214 or D4) at 3, 10 or 30 mg/kg. Compounds were delivered orally via a gavage needle (p.o., volume 3 mL/kg). At time 0, levels of blood glucose were assessed using a glucometer (Elite XL, Bayer), and rats were administered either vehicle (20% hydroxypropyl-beta-cyclodextrin) or test compound. Thirty minutes after administration of test compound, levels of blood glucose were again assessed, and rats were administered dextrose orally at a dose of 2 g/kg. Blood glucose measurements were then taken 30 min, 60 min, and 120 min after this time.

RUP3 = target: T1, RUP3 (Homo sapiens, UniProt Q8TDV5); assay: RUP3 dose responses in melanophores; assay type: cell-based; settings: melanophores transfected with RUP3 expression vector
T1 construct: read from the listing, own knowledge; expressed in transfected cells; host or cells: melanophores, electroporated with the RUP3 expression vector (pCMV)
T1 sequence (Q8TDV5 with tags, fused parts or gaps): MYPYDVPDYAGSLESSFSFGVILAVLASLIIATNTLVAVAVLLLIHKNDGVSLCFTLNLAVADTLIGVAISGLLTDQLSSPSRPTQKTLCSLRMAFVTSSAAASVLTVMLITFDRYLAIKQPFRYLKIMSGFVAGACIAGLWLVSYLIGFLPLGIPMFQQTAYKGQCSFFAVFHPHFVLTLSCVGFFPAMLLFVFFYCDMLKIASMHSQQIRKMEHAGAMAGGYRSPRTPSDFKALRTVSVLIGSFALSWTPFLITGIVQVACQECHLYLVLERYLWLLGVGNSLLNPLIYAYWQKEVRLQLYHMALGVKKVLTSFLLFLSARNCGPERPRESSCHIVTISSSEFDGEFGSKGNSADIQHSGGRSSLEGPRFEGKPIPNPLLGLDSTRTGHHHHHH
Description: Protocol for RUP3 Dose Responses in Melanophores
Melanophores are maintained in culture as reported by Potenza, M. N. and Lerner, M. R., in Pigment Cell Research, Vol. 5, 372-378, 1992 and transfected with the RUP3 expression vector (pCMV) using electroporation. Following electroporation, the transfected cells are plated into 96 well plates for the assay. The cells are then allowed to grow for 48 hours in order to both recover from the electroporation procedure and attain maximal receptor expression levels.
On the assay day, the growth medium on the cells is replaced with serum-free buffer containing 10 nM melatonin. The melatonin acts via an endogenous Gi-coupled GPCR in the melanophores to lower intracellular cAMP levels. In response to lowered cAMP levels, the melanophores translocate their pigment to the center of the cell. The net effect of this is a significant decrease in the absorbance reading of the cell monolayer in the well, measured at […].
After a 1-hour incubation in melatonin, the cells become completely pigment-aggregated. At this point a baseline absorbance reading is collected. Serial dilutions of test compounds are then added to the plate and compounds that stimulate RUP3 produce increases in intracellular cAMP levels. In response to these increased cAMP levels, the melanophores translocate their pigment back into the cell periphery. After one hour, stimulated cells are fully pigment-dispersed. The cell monolayer in the dispersed state absorbs much more light in the 600-650 nm range. The measured increase in absorbance compared to the baseline reading allows one to quantitate the degree of receptor stimulation and plot a dose-response curve.
The compounds in the above examples were screened using the melanophore assay.

Row | Structure (SMILES) | Mean % inhibition of glucose excursion (Male Sprague Dawley rats; dose 10 mg/kg) | Effect on blood glucose after challenge with glucose (Male Sprague Dawley rats) | EC50 (RUP3) [nM] | Mean % inhibition of glucose excursion (Male Sprague Dawley rats; dose 30 mg/kg)
1 | CC(C)OC(=O)N1CCC(Sc2ncnc3c2cnn3-c2ccc(S(C)(=O)=O)cc2F)CC1 [Compound A214, 4-[-(2-Fluoro-4-methanesulfonyl-phenyl)-1H-pyrazolo[3,4-d]-pyrimidin-4-ylsulfanyl]-piperidine-1-carboxylic acid isopropyl ester] | 33%, (10) | lowered blood glucose after challenge with glucose |  | 
2 | CC(C)(C)OC(=O)N1CCC(Oc2ncnc3c2ncn3-c2ccc(S(C)(=O)=O)nc2)CC1 [Compound B5, 4-[9-(6-Methanesulfonyl-pyridin-3-yl)-9H-purin-6-yloxy]-piperidine-1-carboxylic acid tert-butyl ester] |  |  | 59.1 | 
3 | CC(C)(C)OC(=O)N1CCC(Oc2ncnc3c2nnn3-c2ccc(S(C)(=O)=O)cc2)CC1 [Compound C1, 4-[3-(4-Methanesulfonyl-phenyl)-3H-[1,2,3]triazolo[4,5-d]pyrimidin-7-yloxy]-piperidine-1-carboxylic acid tert-butyl ester] |  |  | 13 | 
4 | CC(C)OC(=O)N1CCC(Oc2ncnc3c2cnn3-c2ccc(S(C)(=O)=O)cc2)CC1 [Compound A5, 4-[1-(4-Methanesulfonyl-phenyl)-1H-pyrazolo[3,4-d]pyrimidin-4-yloxy]-piperidine-1-carboxylic acid isopropyl ester] |  |  | 12.7 | 
5 | CC(C)OC(=O)N1CCC(Oc2ncnc3c(-c4ccc(S(C)(=O)=O)cc4)noc23)CC1 [Compound D4, 4-[3-(4-methanesulfonyl-phenyl)-isoxazolo[4,5-d]pyrimidin-7-yloxy]-piperidine-1-carboxylic acid isopropyl ester] |  | lowered blood glucose after challenge with glucose |  | 12%, (30)
6 | CC(C)Oc1ccc(C(=O)N2CCC(Oc3ncnc4c3cnn4-c3ccc(S(C)(=O)=O)cc3F)CC2)nc1 [Compound A194, {4-[1-(2-Fluoro-4-methanesulfonyl-phenyl)-1H-pyrazolo[3,4-d]pyrimidin-4-yloxy]-piperidin-1-yl}-(5-isopropoxy-pyridin-2-yl)-methanone] |  | lowered blood glucose after challenge with glucose |  | 15%, (30)

Source: patent publication US8410119B2, “Fused-aryl and heteroaryl derivatives as modulators of metabolism and the prophylaxis and treatment of disorders related thereto” (Arena Pharmaceuticals, Inc., priority 2003, dated 2013)
